The values below come from patent publication US20060008541A1, “Sodium channel agonist” (BIZMEDIC CO., LTD., priority 2004, published 2006).

Where “and” joins values, the source holds several entries; their conditions need not be identical. Equal entries are not always repeated. Entries after “also recorded” stand apart in the source; their conditions may differ. A value given as a limit tells only on which side of the number the result lay.

For one data set, the target named is cardiac INa (Homo sapiens, UniProt Q14524). To be noted: cited from earlier work.
The next data set has as its target L-type calcium current (Homo sapiens, UniProt Q13936). To be noted: cited from earlier work.
In data set [1] the test system is inward rectifier K+ current. As to conditions: cited from earlier work.
The next data set deals with rat ventricular myocytes. Briefly: Action potentials in isolated rat ventricular myocytes, whole-cell current clamp. The protocol: Ventricular myocytes were isolated from the hearts of 3-week or 6 to 7- week-old Sprague-Dawley rats of either sex. Rats were anaesthetized with pentobarbitone sodium (i.p. 200 mg kg^−1). Isolated hearts were mounted on a Langendorff perfusion apparatus, washed at 37° C. for 5 min with a modified Tyrode solution containing (mM): 143 NaCl, 5.4 KCl, 5 HEPES, 0.5 MgCl2, 0.5 NaH2PO4, 1.8 CaCl2, 10 glucose, adjusted pH to 7.4 with NaOH, and then perfused with Ca^2+-free Tyrode solution for 5 min. After the hearts had stopped beating, Ca^2+-free Tyrode solution containing collagenase (0.5 mg ml^−1, Type II, Worthington) was perfused for 30 min. Finally, this enzyme containing solution was washed out for 5 min with a high K^+, low Cl^−KB solution containing (in mM): 70 K-glutamate, 55 KCl, 10 HEPES, 3 MgCl2, 20 taurine, 20 KH2PO4, 0.5 K-EGTA adjusted pH to 7.3 with KOH. A portion of the left ventricle was then dissected out and gently stirred with a forceps in KB solution. The isolated ventricular myocytes were kept in KB solution at 5° C. before use.
Patch pipettes (1˜2 MΩ when filled with experimental solutions) were pulled from borosilicate glass capillaries (Harvard Apparatus Ltd, UK). Conventional whole-cell patch clamp technique was used to record membrane current or voltage from single ventricular myocytes. In current-clamp mode, action potentials were evoked by a brief supra-threshold current pulse. In voltage clamp mode, access resistance was monitored throughout the experiment, and data were accepted only when the access resistance was kept below 6 MΩ. Filtered signals (10 KHz) from a patch clamp amplifier (Biologic RK 300, France), were fed into AD/DA converter (PCI-MIO-16E-4, National Instrument, USA), digitized at 20 KHz, and stored in PC for later analysis. The flow rate of the perfusion solution was 0.5˜1 ml min^−1. All electrophysiological experiments were performed at room temperature (23˜25° C.). The statistical results in the text and in figures were presented as means ±S.E.M. (n=number of cells studied). Statistical significance was accepted for p value <0.05.
APs were evoked by applying 50-70 pA depolarising current pulses (5 ms in duration) every 500 ms through a patch pipette in current clamp mode with a whole-cell configuration. The effects of dmLSB on APD were quantified in terms of APD90; defined as the APD measured at the voltage at which repolarization process is 90% complete. Time-profile of the change in APD90 values averaging from five sequential APs selected every 12 seconds was plotted in FIG. 2A as a function of whole-cell recording time.
Experimental methods for electrophysiology (recording currents and action potentials) are the same as described above for dmLSB.

The subject of data set [2] is inward rectifier K+ currents and delayed rectifier K+ currents. Briefly: K+ currents in rat ventricular myocytes, voltage clamp with K+-rich pipette solution. In kind it is cell-based. As to conditions: 10 μM dmLSB; I950ms. The protocol:
(§1) Statistical significance was accepted for p value <0.05.
The K-rich pipette solution containing (in mM): 90 K-aspartate, 30 KCl, 2 MgCl2, 5 Mg-ATP, 10 HEPES, 5 K-EGTA, 5 diTris-creatine phosphate, 2.5 Na2-creatine phosphate was used. Cs-aspartate internal solution contained (in mM): 90 Cs-aspartate, 20 CsCl, 2 MgCl2, 5 Mg-ATP, 10 HEPES, 2.5 Na2-creatine phosphate, 10 tetraethyl-ammonium chloride (TEA-Cl), 5 Cs-EGTA with pH adjusted to 7.3 using CsOH. When Cs-aspartate internal solution was used in combination with normal Tyrode (NT) bathing solution, the holding current level was inward at −80 mV, probably due to K^+ influx via inward rectifier K channels. To prevent this inward holding current, KCl in the NT solution was substituted with equimolar CsCl.
To elucidate the mechanism underlying APD change by dmLSB, voltage-clamp experiments were performed and the effects of dmLSB on the ionic currents in rat ventricular myocytes were investigated. Membrane currents were recorded in a voltage clamp mode using a patch pipette containing a K^+-rich (140 mM) internal solution. […]
However, initial amplitudes measured at 20 ms (I20ms) in the presence of dmLSB differed from those measured under control conditions, and the I-V relationship deviated inwardly by dmLSB. […]

The next data set addresses Na+ current (INa) (Rattus norvegicus, UniProt P15389). Briefly: Na+ current (INa) in rat ventricular myocytes, whole-cell voltage clamp. In kind it is cell-based. The arrangement: endogenous in cells; host or cells: freshly isolated rat (Sprague-Dawley) left ventricular myocytes.
Source text: as §1
As sodium current (INa) in ventricular myocytes is so fast and large that membrane potential is prone to escape from the command voltage, it is necessary to reduce INa for a quantitative analysis. For this purpose, small ventricular myocytes isolated from young (3-weeks-old) rats were used, and currents recorded in a modified Cs^+-based low Na^+ bath solution (Yuill et al., 2000) which contained (in mM): 130 CsCl, 10 NaCl, 2.5 MgCl2, 0.5 CaCl2, 20 HEPES, 11 glucose, in experiments shown in FIG. 5. It was reported that the kinetics of INa in the standard solution (145 mM Na^+) and in Cs-based solution (10 mM Na^+) were similar.
To examine the effect of dmLSB on inward currents, a Cs^+-rich pipette solution containing 10 mM EGTA was used. To distinguish L-type Ca^2+ currents (ICa,L) from Na^+ currents (INa), a two-step pulse protocol was used (inset of FIG. 4A). […] Although the peak amplitude of INa was unaffected by dmLSB, significant broadening of inactivation phase was observed.
To avoid the problem of voltage escape and to investigate the effects of dmLSB on INa in a quantitative manner, INa was recorded in low external [Na^+] (10 mM). It is well known that the steady-state inactivation shifted spontaneously during whole-cell mode recording. To activate INa from the potential at which inactivation is fully recovered, depolarising test pulses were applied following a 500 ms pre-pulse to −120 mV. To eliminate the contamination of ICa,L and to isolate pure INa, current response to the same test pulse from holding potential (Vh) of −40 mV, which was regarded as ICa,L, was subtracted from that from Vh of −120 mV.
Pre-pulses of 500 ms duration at variable potentials (from −150 to −15 mV in 15 mV steps) preceded a 50 ms test pulse to −20 mV. The superimposed current responses to the test pulse (−20 mV) are shown in FIG. 6A (left, control; right, 20 μM dmLSB). […] The peak amplitudes of INa are plotted against pre-pulse voltages in FIG. 6B. […] The voltages for half inactivation were −75.7±0.61 mV (n=28) in control and −77.8±1.05 mV (n=32) in the presence of dmLSB (t-test, p>0.05).
Since dmLSB specifically affected the slow phase of inactivation, the difference current represented the slow inactivating INa (ISlow) induced by dmLSB. To quantify the magnitude of the effect of dmLSB on INa, the relative amplitude of ISlow to the peak INa was plotted.
Since dmLSB is lipophilic, it is possible that it permeates the plasma membrane and binds to intracellular receptors or to Na channel protein itself. It is not clear whether its effects were mediated via a cell surface binding site, an intracellular site, or both. To test this possibility, a ventricular myocyte was perfused intracellularly with the patch pipette solution containing 20 μM dmLSB, and INa was monitored while patch pipette solution diffused-in. Meanwhile, the series resistance (RS) was kept below 7 MΩ. As soon as the whole-cell patch was established, INa was recorded at a test potential of −20 mV, and this current trace was subtracted from subsequent INa records. The amplitudes of the subtracted currents were plotted as a function of whole-cell recording time (WCR time; FIG. 8A). […] No change in the inactivation kinetics of INa was observed until dmLSB was applied externally. When 5 μM dmLSB was bath-applied at ca 13 min of WCR time to the same cell, ISlow appeared, indicative of the dmLSB effect.

For data set [3], the target named is L-type Ca2+ current (ICa,L) (Rattus norvegicus, UniProt P22002). In kind it is cell-based. As to conditions: 10 μM dmLSB.
[4] abbreviates: mean value, during dmLSB superfusion, n=7.

Chain of cardiac INa (Q14524 whole entry): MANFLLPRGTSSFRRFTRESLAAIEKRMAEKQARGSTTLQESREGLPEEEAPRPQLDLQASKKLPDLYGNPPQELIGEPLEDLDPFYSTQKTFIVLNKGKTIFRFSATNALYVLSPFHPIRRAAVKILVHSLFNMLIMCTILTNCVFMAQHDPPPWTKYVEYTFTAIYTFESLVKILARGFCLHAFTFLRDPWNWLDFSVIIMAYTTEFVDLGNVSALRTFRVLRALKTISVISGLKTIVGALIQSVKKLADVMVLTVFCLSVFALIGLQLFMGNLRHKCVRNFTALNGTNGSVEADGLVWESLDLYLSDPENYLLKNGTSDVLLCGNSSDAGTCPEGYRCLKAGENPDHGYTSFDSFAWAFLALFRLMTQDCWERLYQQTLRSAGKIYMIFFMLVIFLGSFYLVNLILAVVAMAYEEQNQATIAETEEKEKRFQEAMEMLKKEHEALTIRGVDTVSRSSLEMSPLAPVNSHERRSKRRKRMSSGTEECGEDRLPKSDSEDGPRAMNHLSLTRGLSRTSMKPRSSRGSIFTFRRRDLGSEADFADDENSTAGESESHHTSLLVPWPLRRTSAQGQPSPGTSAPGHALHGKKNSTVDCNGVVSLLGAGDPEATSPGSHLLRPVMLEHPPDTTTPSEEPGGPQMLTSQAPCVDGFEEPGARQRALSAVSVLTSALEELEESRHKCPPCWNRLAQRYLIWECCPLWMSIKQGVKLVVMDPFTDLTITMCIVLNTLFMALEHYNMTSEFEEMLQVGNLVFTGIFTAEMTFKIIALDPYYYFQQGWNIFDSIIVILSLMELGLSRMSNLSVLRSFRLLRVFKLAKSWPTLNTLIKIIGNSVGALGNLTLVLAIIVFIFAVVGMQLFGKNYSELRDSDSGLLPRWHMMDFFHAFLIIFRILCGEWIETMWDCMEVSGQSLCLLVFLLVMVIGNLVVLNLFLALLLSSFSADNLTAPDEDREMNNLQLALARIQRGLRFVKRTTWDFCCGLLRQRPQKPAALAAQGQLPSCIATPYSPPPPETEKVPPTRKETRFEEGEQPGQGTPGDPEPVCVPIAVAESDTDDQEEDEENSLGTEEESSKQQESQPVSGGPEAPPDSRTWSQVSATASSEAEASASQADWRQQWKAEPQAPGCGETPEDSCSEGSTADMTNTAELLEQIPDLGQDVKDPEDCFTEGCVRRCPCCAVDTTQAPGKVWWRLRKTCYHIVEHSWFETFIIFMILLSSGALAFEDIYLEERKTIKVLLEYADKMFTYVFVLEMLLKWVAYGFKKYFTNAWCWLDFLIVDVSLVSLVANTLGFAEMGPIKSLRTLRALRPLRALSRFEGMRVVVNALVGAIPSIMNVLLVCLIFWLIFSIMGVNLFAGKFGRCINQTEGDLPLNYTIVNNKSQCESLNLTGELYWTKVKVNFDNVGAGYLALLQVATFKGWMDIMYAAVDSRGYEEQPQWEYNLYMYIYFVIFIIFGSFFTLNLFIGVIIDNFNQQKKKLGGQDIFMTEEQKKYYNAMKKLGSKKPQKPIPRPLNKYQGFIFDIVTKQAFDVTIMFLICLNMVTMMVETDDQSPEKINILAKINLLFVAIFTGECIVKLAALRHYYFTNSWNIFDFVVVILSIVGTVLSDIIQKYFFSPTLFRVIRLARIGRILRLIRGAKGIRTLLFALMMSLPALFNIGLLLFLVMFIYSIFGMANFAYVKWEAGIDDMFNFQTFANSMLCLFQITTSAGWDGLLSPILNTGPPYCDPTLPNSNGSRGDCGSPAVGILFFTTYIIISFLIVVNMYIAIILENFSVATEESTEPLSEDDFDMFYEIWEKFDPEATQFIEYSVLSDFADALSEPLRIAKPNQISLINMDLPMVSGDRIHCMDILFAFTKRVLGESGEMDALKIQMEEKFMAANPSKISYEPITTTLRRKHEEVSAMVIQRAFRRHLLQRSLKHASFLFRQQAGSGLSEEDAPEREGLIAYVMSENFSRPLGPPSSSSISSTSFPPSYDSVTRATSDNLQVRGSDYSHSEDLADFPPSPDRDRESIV
Chain of Na+ current (INa) (P15389 whole entry): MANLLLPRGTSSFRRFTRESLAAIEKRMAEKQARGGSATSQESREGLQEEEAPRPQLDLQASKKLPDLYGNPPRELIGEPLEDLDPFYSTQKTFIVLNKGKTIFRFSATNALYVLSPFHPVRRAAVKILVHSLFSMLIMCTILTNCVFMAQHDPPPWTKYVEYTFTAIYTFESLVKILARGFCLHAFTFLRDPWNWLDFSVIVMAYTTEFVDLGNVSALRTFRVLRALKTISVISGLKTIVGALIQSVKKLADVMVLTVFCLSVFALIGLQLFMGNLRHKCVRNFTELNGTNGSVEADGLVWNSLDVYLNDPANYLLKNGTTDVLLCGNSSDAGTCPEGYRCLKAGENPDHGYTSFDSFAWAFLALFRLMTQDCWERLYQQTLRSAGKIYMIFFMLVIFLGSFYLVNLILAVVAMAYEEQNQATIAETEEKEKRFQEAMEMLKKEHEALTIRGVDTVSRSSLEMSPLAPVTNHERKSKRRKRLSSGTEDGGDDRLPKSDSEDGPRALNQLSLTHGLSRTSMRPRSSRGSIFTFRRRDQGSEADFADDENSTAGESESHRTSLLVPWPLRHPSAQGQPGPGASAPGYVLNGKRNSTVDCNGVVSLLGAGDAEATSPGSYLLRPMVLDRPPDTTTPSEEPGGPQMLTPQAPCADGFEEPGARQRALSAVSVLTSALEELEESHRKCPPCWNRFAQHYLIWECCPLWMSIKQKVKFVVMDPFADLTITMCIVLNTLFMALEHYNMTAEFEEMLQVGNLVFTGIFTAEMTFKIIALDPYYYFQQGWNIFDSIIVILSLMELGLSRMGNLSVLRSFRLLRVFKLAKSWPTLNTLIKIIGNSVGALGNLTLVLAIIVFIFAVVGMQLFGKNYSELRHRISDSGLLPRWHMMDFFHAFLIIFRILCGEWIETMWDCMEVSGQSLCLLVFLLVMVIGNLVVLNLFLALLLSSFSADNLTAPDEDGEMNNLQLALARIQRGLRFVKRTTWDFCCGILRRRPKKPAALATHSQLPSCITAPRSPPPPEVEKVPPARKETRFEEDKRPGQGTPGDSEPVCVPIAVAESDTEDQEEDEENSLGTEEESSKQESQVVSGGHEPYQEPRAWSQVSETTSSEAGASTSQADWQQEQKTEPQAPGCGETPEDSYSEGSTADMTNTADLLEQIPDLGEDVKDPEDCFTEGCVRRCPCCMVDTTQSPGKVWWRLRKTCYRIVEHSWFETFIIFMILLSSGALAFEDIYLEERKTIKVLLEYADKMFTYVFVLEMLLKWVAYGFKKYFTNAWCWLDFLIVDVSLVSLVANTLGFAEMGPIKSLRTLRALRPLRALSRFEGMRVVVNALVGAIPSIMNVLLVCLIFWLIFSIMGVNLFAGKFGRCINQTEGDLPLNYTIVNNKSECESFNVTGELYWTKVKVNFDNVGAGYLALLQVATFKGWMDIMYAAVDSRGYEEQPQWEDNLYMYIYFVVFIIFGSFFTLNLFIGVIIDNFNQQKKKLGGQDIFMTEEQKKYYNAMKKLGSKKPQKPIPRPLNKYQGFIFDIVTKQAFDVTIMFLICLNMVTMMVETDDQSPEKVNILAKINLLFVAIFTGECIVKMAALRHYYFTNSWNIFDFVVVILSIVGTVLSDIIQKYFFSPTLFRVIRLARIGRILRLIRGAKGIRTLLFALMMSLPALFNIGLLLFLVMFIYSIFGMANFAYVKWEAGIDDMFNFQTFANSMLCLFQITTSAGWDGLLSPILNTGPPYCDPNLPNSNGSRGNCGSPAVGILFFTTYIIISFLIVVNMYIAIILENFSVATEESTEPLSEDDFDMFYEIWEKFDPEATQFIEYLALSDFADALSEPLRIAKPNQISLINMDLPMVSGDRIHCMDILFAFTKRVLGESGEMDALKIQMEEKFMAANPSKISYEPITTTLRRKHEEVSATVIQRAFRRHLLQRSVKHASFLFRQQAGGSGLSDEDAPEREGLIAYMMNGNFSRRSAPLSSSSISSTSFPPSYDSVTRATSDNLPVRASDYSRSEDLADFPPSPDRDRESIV

For `CC1(C)C(C(=O)OC(C#N)c2cccc(Oc3ccccc3)c2)C1(C)C` (stereo not shown) [fenpropathrin], the “activation and inactivation curves of INa (literature)” value at cardiac INa is “leftward shifts”.

As for `N#Cc1cc2c(OCC(O)CN3CCN(C(c4ccccc4)c4ccccc4)CC3)cccc2[nH]1` (stereo not shown) [DPI 201-106], the “persistent INa (literature)” value on cardiac INa is reported as “induce a persistent INa”. Also, the “calcium current (literature)” value at L-type calcium current is recorded as “inhibit”. For the same compound, the “inward rectifier K+ current (literature)” value in data set [1] is “inhibit”.

On to `Cc1oc2ccccc2c1Cc1cc(I)c(OCC(=O)O)c(I)c1` [KB130015, 2-Methyl-3-(3,5-diiodo-4-carboxymethoxybenzyl)benzofuran], for which, on cardiac INa, the “INa inactivation (literature)” value is “slowed INa inactivation” and the “persistent INa (literature)” value is given as “without developing persistent INa”. The “calcium current (literature)” value at L-type calcium current is recorded as “reduces ICa”.

`O=C(/C=C/c1ccc(O)c2c1C(C(=O)OC(Cc1ccc(O)c(O)c1)C(=O)O)C(c1ccc(O)c(O)c1)O2)OC(Cc1ccc(O)c(O)c1)C(=O)O` (stereo not shown) [LSB, lithospermate B, reference compound]: the electrophysiological effect entry with rat ventricular myocytes is on record as “negligible electrophysiological effect; also recorded: no effect on cardiac action potential”.

On to `N#Cc1cc2c(OCC(O)COC3CN(C(c4ccccc4)c4ccccc4)C3)cccc2[nH]1` (stereo not shown) [BDF 9148], for which the “persistent INa (literature)” value at cardiac INa is reported as “induce a persistent INa”. In addition, the “calcium current (literature)” value at L-type calcium current is “inhibit”. The “inward rectifier K+ current (literature)” value in data set [1] is recorded as “inhibit”.

Consider `COC(=O)[C@@H](Cc1ccc(O)c(O)c1)OC(=O)/C=C/c1ccc(O)c2c1[C@H](C(=O)O[C@H](Cc1ccc(O)c(O)c1)C(=O)OC)[C@@H](c1ccc(O)c(O)c1)O2` [dmLSB, dimethyl lithospermate B], for which the “Action potential duration (APD90)” value in the data set on rat ventricular myocytes (20 μM dmLSB, control 58.8±12.1 ms, n=7) stood at 202.3 ± 9.5 ms. The “early after-depolarisation (EAD)” value in the data set on rat ventricular myocytes (during prolonged plateau phase of AP) is on record as “no early after-depolarisation was observed; also recorded: not associated with the generation of EAD; also recorded: no EAD observed”. Also, the “effect on AP duration (APD)” value in the data set on rat ventricular myocytes (isolated rat ventricular myocytes) is reported as “increases the APD”. Further, in the data set on rat ventricular myocytes (setting [4]), the overshoot potential came out at 53.53±8.8 mV and the “resting membrane potential (RMP)” value was −68.46±2.6 mV. Also, the “concentration at which APD prolongation was maximal” value with rat ventricular myocytes (tested up to 100 μM) was 20 µM. Also, the “effect on K+ currents” value in data set [2] is “no noticeable effect; also recorded: no significant difference”. Moreover, on Na+ current (INa), the INa inactivation kinetics result is “slowed the inactivation kinetics” and the “steady-state (s-s) inactivation of INa” value was “not affected; also recorded: no effect on the steady-state inactivation”. The “peak amplitude of INa” value on Na+ current (INa) (10 μM dmLSB) was “unaffected; also recorded: decreased slightly”. Further, the “time within which INa inactivation was completed” value at Na+ current (INa) (10 μM dmLSB, −20 mV) was not above 50 ms. The “effect of intracellular application on INa” value on Na+ current (INa) (20 μM dmLSB in pipette solution, n=4) is recorded as “essentially no effect on INa”. Besides, the “V1/2 of steady-state inactivation fit” value on Na+ current (INa) (20 μM dmLSB, n=32, control −75.7, no unit) is listed as −77.8. Also, on Na+ current (INa) (20 μM dmLSB, n=32, control −75.7±0.61 mV), the “voltage for half inactivation” value was −77.8±1.05 mV. In addition, at Na+ current (INa) (20 μM dmLSB, control 10.20), the “k of steady-state inactivation fit” value was 9.99. In addition, the “amplitude of the slow component (AS), of the peak INa” value on Na+ current (INa) (at −20 mV, 10 μM dmLSB, bi-exponential fit, n=4) is given as 22.1±1.02%. Also, on Na+ current (INa) (bath application), the “time to maximal effect at each concentration” value is “ca. 150 seconds”. Moreover, the Hill coefficient on Na+ current (INa) (dose-response of ISlow relative to peak INa) came out at 1.02. Besides, the “mean voltage for half-maximal activation” value at Na+ current (INa) (in the presence of 10 μM dmLSB, low [Na+] 10 mM, n=4, control −42.35±1.1) is reported as −37.28±0.8. In addition, the EC50 at Na+ current (INa) (test pulse −20 mV, Hill fit, read-out: EC50, relative amplitude of slow component (ISlow) to peak INa) was 21.1 µM and 20 µM. The “shift of voltage-dependence of activation (activation curve)” value on Na+ current (INa) (to the depolarised (right) direction, 10 μM dmLSB) was 5 mV. Moreover, on Na+ current (INa) (wash-out), the “reversibility of effect on INa” value is “reversible; also recorded: completely reversed after the wash-out”. In addition, the “effect on Ca2+ currents (ICa,L)” value in data set [3] was “no noticeable effect; also recorded: hardly affected; also recorded: No significant difference”.
